This series in a line: activity coefficient (dimensionless); of the first substance listed, at infinite dilution; xn = mol fraction of the nth substance listed. Particulars: 101 kPa, Liquid, Chromatography, x1 = 0.

Molecules are shown by their SMILES. Numbers after ± are expanded uncertainties.

For `CC(C)=O` [acetone] + CCCCCCCCCCCCCCCC(=O)O, the activity coefficient runs as follows: (340.17 K) 1.49 ± 0.13; (340.19 K) 1.49 ± 0.13; (347.93 K) 1.41 ± 0.12; (348.01 K) 1.42 ± 0.12; (358.23 K) 1.32 ± 0.11; (358.32 K) 1.34 ± 0.11.

For `CCC(C)O` (configuration not stated) [butan-2-ol] + CCCCCCCCCC(=O)O, the activity coefficient was determined as 1.33 ± 0.11 (314.1 K); 1.35 ± 0.11 (314.24 K); 1.17 ± 0.097 (333.26 K); 1.16 ± 0.096 (333.38 K); 1.05 ± 0.087 (353.25 K); 1.04 ± 0.085 (353.3 K).

Turning to `CCO` [ethanol] + CCCCCCCCCCCCCC(=O)O, the activity coefficient was 1.82 ± 0.16 (314.1 K); 1.79 ± 0.15 (314.24 K); 1.67 ± 0.14 (333.26 K); 1.67 ± 0.14 (333.38 K); 1.53 ± 0.13 (353.25 K); 1.52 ± 0.13 (353.3 K).

Turning to `CCCCCCC` [heptane] + CCCCCCCCCCCCCCCC(=O)O, the activity coefficient by setting is: (340.19 K) 1.4 ± 0.12; (348.01 K) 1.38 ± 0.12; (358.22 K) 1.37 ± 0.12.

For `ClC=C(Cl)Cl` [trichloroethene] + CCCCCCCCCCCCCC(=O)O, the activity coefficient runs as follows: (314.1 K) 0.847 ± 0.07; (314.24 K) 0.843 ± 0.07; (333.26 K) 0.842 ± 0.07; (333.38 K) 0.838 ± 0.07; (353.25 K) 0.842 ± 0.07; (353.3 K) 0.824 ± 0.069.

For `CCOC(C)=O` [ethyl acetate] + CCCCCCCCCCCCCCCC(=O)O, the activity coefficient was determined as 1.28 ± 0.11 (340.19 K), 1.2 ± 0.1 (347.93 K) and 1.16 ± 0.096 (358.22 K).

In the case of `ClCc1ccccc1` [(chloromethyl)benzene] + CCCCCCCCCCCCCC(=O)O, the activity coefficient is, setting by setting: (333.26 K) 1.61 ± 0.14; (333.38 K) 1.6 ± 0.14; (353.25 K) 1.57 ± 0.13; (353.3 K) 1.55 ± 0.13.

Consider `Cc1ccccc1` [toluene] + CCCCCCCCCCCCCCCC(=O)O, for which the activity coefficient reads like this: (340.19 K) 0.934 ± 0.077; (348.01 K) 0.935 ± 0.077; (358.22 K) 0.934 ± 0.077.

On to `CCO` [ethanol] + CCCCCCCCCCCC(=O)O, for which the activity coefficient was determined as 1.92 ± 0.17 (314.1 K); 2.02 ± 0.17 (314.24 K); 1.79 ± 0.15 (333.38 K); 1.56 ± 0.13 (353.25 K); 1.57 ± 0.13 (353.3 K).

On to `CC(C)CC(C)(C)C` [2,2,4-trimethylpentane] + CCCCCCCCCC(=O)O, for which the activity coefficient is, setting by setting: (314.1 K) 2.02 ± 0.17; (314.24 K) 1.98 ± 0.17; (333.26 K) 1.91 ± 0.16; (353.25 K) 1.86 ± 0.16.

Turning to `COc1ccccc1` [anisole] + CCCCCCCCCC(=O)O, the activity coefficient turned out to be 1.43 ± 0.12 (353.25 K) and 1.45 ± 0.12 (353.3 K).

Turning to `CO` [methanol] + CCCCCCCCCCCCCC(=O)O, the activity coefficient is, setting by setting: (314.24 K) 1.92 ± 0.17; (333.26 K) 1.73 ± 0.15; (333.38 K) 1.71 ± 0.15; (338.29 K) 2 ± 0.17; (353.3 K) 1.56 ± 0.13; (358.31 K) 1.6 ± 0.14.

With `CCCO` [propan-1-ol] + CCCCCCCCCCCC(=O)O, the activity coefficient runs as follows: (314.1 K) 1.76 ± 0.15; (314.24 K) 1.78 ± 0.15; (333.26 K) 1.57 ± 0.13; (333.38 K) 1.6 ± 0.14; (353.25 K) 1.43 ± 0.12; (353.3 K) 1.43 ± 0.12.

For the molecule `CC(C)=O` [acetone] + CCCCCCCCCC(=O)O, the activity coefficient came out at 1.56 ± 0.13 (314.1 K), 1.46 ± 0.12 (333.26 K), 1.47 ± 0.12 (333.38 K) and 1.34 ± 0.11 (353.25 K).

Consider `ClCCCl` [1,2-dichloroethane] + CCCCCCCCCCCCCC(=O)O, for which the activity coefficient reads like this: (314.1 K) 1.21 ± 0.1; (314.24 K) 1.24 ± 0.1; (333.26 K) 1.2 ± 0.099; (333.38 K) 1.18 ± 0.098; (353.25 K) 1.13 ± 0.094; (353.3 K) 1.13 ± 0.093.

For `Clc1ccccc1` [chlorobenzene] + CCCCCCCCCCCCCCCC(=O)O, the activity coefficient reads like this: (340.19 K) 0.974 ± 0.08; (348.01 K) 0.957 ± 0.079; (358.22 K) 0.974 ± 0.08.

On to `CCO` [ethanol] + CCCCCCCCCC(=O)O, for which the activity coefficient (314.1 K) came out at 2.12 ± 0.18; the activity coefficient (314.24 K) was 2.07 ± 0.18; the activity coefficient (333.26 K) stood at 1.73 ± 0.15; the activity coefficient (333.38 K) turned out to be 1.78 ± 0.15; the activity coefficient (353.3 K) stood at 1.48 ± 0.12.

Take `CCCCCC` [hexane] + CCCCCCCCCCCC(=O)O: the activity coefficient is, setting by setting: (314.24 K) 1.57 ± 0.13; (333.26 K) 1.53 ± 0.13; (333.38 K) 1.54 ± 0.13; (353.25 K) 1.5 ± 0.13.

For `CCCCO` [butan-1-ol] + CCCCCCCCCCCCCCCC(=O)O, the activity coefficient (340.19 K) worked out at 1.65 ± 0.14, the activity coefficient (348.01 K) turned out to be 1.55 ± 0.13 and the activity coefficient (358.32 K) is 1.43 ± 0.12.

Turning to `CCOC(C)=O` [ethyl acetate] + CCCCCCCCCC(=O)O, the activity coefficient is, setting by setting: (314.1 K) 1.33 ± 0.11; (333.26 K) 1.25 ± 0.1; (333.38 K) 1.3 ± 0.11; (353.25 K) 1.21 ± 0.1.

Regarding `ClC(Cl)Cl` [trichloromethane] + CCCCCCCCCCCCCC(=O)O, the activity coefficient came out at 0.743 ± 0.063 (314.1 K); 0.743 ± 0.063 (314.24 K); 0.739 ± 0.063 (333.26 K); 0.74 ± 0.063 (333.38 K); 0.746 ± 0.064 (353.25 K); 0.727 ± 0.062 (353.3 K).

`CCc1ccccc1` [ethylbenzene] + CCCCCCCCCCCCCCCC(=O)O: the activity coefficient was 1.04 ± 0.085 (340.19 K), 1.05 ± 0.086 (348.01 K) and 1.06 ± 0.087 (358.22 K).

As for `C=CCCCC` [hex-1-ene] + CCCCCCCCCCCC(=O)O, the activity coefficient by setting is: (329.2 K) 1.39 ± 0.12; (343.39 K) 1.39 ± 0.12; (358.06 K) 1.34 ± 0.11.

Turning to `Clc1ccccc1` [chlorobenzene] + CCCCCCCCCCCC(=O)O, the activity coefficient (314.1 K) was found to be 1.11 ± 0.091; the activity coefficient (314.24 K) worked out at 1.12 ± 0.092; the activity coefficient (333.26 K) was determined as 1.08 ± 0.089; the activity coefficient (343.65 K) amounted to 1.07 ± 0.089; the activity coefficient (353.25 K) came out at 1.07 ± 0.088.

Regarding `CC(C)O` [propan-2-ol] + CCCCCCCCCCCC(=O)O, the activity coefficient was 1.5 ± 0.13 (314.1 K); 1.53 ± 0.13 (314.24 K); 1.33 ± 0.11 (333.26 K); 1.37 ± 0.12 (333.38 K); 1.22 ± 0.1 (353.25 K); 1.24 ± 0.1 (353.3 K).

For `CCCCO` [butan-1-ol] + CCCCCCCCCC(=O)O, the activity coefficient (333.26 K) was found to be 1.48 ± 0.13, the activity coefficient (333.35 K) is 1.53 ± 0.13, the activity coefficient (353.25 K) came out at 1.34 ± 0.11 and the activity coefficient (353.3 K) came out at 1.32 ± 0.11.

`C1CCCCC1` [cyclohexane] + CCCCCCCCCC(=O)O: the activity coefficient amounted to 1.44 ± 0.12 (314.1 K); 1.46 ± 0.12 (314.24 K); 1.39 ± 0.12 (333.26 K); 1.39 ± 0.12 (333.38 K); 1.35 ± 0.12 (353.25 K); 1.31 ± 0.11 (353.3 K).

For the molecule `Cc1ccccc1` [toluene] + CCCCCCCCCCCCCC(=O)O, the activity coefficient runs as follows: (338.27 K) 0.926 ± 0.076; (338.29 K) 1.01 ± 0.083; (348.2 K) 0.958 ± 0.079; (358.33 K) 0.93 ± 0.077.

As to `ClC(Cl)Cl` [trichloromethane] + CCCCCCCCCCCC(=O)O, the activity coefficient by setting is: (314.1 K) 0.81 ± 0.068; (314.24 K) 0.81 ± 0.068; (333.26 K) 0.832 ± 0.069; (333.38 K) 0.818 ± 0.068; (353.3 K) 0.839 ± 0.07.

Consider `Clc1ccccc1` [chlorobenzene] + CCCCCCCCCCCCCC(=O)O, for which the activity coefficient runs as follows: (314.1 K) 0.983 ± 0.081; (314.24 K) 0.998 ± 0.082; (333.26 K) 0.996 ± 0.082; (333.38 K) 0.982 ± 0.081; (353.25 K) 0.979 ± 0.081; (353.3 K) 0.961 ± 0.079.

For `CC(C)=O` [acetone] + CCCCCCCCCCCCCC(=O)O, the activity coefficient (314.1 K) amounted to 1.43 ± 0.12; the activity coefficient (314.24 K) was determined as 1.46 ± 0.12; the activity coefficient (333.26 K) amounted to 1.36 ± 0.11; the activity coefficient (333.38 K) is 1.35 ± 0.11; the activity coefficient (353.25 K) was 1.3 ± 0.11; the activity coefficient (353.3 K) was determined as 1.27 ± 0.11.

With `C1CCCCC1` [cyclohexane] + CCCCCCCCCCCCCCCC(=O)O, the activity coefficient was 1.03 ± 0.085 (340.19 K), 1.02 ± 0.084 (348.01 K) and 1.01 ± 0.083 (358.22 K).

As to `CCC(C)O` (configuration not stated) [butan-2-ol] + CCCCCCCCCCCCCC(=O)O, the activity coefficient by setting is: (314.1 K) 1.17 ± 0.097; (314.24 K) 1.21 ± 0.1; (333.26 K) 1.12 ± 0.093; (333.38 K) 1.11 ± 0.092; (353.25 K) 1.05 ± 0.087; (353.3 K) 1.04 ± 0.086.

The values are drawn from the NIST ThermoML archive (doi:10.1016/j.jct.2012.06.009).
